Assay [1] addresses T1, ATM (Homo sapiens, UniProt Q13315).
T1 construct: detecting phosphorylation of Chk2 in a human non-small cell lung cancer cell line NCI-H460 (ATCC company); host or cells: NCI-H460 human non-small cell lung cancer cells
Put plainly: ATM inhibition test (phosphorylation of Chk2 generated by ionizing radiation, AlphaScreen SureFire). It counts as cell-based. Conditions: phosphorylated Chk2 in NCI-H460 cells, ionizing radiation 8Gy, 1 hour after test compound treatment; read-out: ATM inhibitory activity. In a few lines: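 In NCI-H460 cells, radiation-triggered Chk2 phosphorylation (8Gy, 1 h) is detected by AlphaScreen SureFire following 1 h compound exposure.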

For assay [2], the system named is human non-small cell lung cancer cell line NCI-H460. Put plainly: Cell proliferation inhibition test by sensitivity-enhancing to ionizing radiation (Cell Titer Glo). It counts as cell-based. The conditions noted are these: Homo sapiens, NCI-H460, 120 h, concentration in which SER became 2; NCI-H460 cells, ionizing radiation 2 Gy, cultured 120 hour. As for the experimental part:
A human non-small cell lung cancer cell line NCI-H460 (ATCC company) was adjusted so as to be 2×10^3 cells/mL in a RPMI-1640 medium containing penicillin/streptomycin and FBS having a final concentration of 10%, and this was seeded by 100 μL per well in 96-well CellBIND® plates (Corning International Inc.). After 24 hours, the medium of cells was replaced with 100 μL of a medium including serially diluted liquid of the test compound or DMSO having a final concentration of 0.1%. 30 minutes after the medium was replaced, half of the plates were irradiated with ionizing radiation 2 Gy (Faxitron Bioptics, LLC, RX-650 type). The cells of the plates irradiated with ionizing radiation and the plates not being irradiated with ionizing radiation were cultured at 37° C. for 120 hour in 5% CO2. After a Cell Titer Glo reaction liquid of an equal volume was added to each well, the amount of luminescence was measured, according to the instruction book of Cell Titer Glo (Promega Corporation). Since the amount of luminescence is proportional to the ATP concentration in cells, the amount of luminescence was used as an indicator of the number of viable cells. Sensitivity-enhancing effects (SER) to ionizing radiation by the test compound was calculated by the following equation. SER=(amount of luminescence of wells including DMSO having a final concentration of 0.1% in the plates irradiated with ionizing radiation×amount of luminescence of wells including a compound in the plates not being irradiated with ionizing radiation)/(amount of luminescence of wells including the test compound in the plates irradiated with ionizing radiation×amount of luminescence of wells including DMSO having a final concentration of 0.1% in the plates not being irradiated with ionizing radiation)
SER at each compound concentration was plotted by nonlinear regression fit (FitModel (205)) by a sigmoidal dose-response equation using XLfit software (IDBS), and the concentration (SER2) in which SER became 2 was calculated.

T1 sequence (Q13315 whole entry): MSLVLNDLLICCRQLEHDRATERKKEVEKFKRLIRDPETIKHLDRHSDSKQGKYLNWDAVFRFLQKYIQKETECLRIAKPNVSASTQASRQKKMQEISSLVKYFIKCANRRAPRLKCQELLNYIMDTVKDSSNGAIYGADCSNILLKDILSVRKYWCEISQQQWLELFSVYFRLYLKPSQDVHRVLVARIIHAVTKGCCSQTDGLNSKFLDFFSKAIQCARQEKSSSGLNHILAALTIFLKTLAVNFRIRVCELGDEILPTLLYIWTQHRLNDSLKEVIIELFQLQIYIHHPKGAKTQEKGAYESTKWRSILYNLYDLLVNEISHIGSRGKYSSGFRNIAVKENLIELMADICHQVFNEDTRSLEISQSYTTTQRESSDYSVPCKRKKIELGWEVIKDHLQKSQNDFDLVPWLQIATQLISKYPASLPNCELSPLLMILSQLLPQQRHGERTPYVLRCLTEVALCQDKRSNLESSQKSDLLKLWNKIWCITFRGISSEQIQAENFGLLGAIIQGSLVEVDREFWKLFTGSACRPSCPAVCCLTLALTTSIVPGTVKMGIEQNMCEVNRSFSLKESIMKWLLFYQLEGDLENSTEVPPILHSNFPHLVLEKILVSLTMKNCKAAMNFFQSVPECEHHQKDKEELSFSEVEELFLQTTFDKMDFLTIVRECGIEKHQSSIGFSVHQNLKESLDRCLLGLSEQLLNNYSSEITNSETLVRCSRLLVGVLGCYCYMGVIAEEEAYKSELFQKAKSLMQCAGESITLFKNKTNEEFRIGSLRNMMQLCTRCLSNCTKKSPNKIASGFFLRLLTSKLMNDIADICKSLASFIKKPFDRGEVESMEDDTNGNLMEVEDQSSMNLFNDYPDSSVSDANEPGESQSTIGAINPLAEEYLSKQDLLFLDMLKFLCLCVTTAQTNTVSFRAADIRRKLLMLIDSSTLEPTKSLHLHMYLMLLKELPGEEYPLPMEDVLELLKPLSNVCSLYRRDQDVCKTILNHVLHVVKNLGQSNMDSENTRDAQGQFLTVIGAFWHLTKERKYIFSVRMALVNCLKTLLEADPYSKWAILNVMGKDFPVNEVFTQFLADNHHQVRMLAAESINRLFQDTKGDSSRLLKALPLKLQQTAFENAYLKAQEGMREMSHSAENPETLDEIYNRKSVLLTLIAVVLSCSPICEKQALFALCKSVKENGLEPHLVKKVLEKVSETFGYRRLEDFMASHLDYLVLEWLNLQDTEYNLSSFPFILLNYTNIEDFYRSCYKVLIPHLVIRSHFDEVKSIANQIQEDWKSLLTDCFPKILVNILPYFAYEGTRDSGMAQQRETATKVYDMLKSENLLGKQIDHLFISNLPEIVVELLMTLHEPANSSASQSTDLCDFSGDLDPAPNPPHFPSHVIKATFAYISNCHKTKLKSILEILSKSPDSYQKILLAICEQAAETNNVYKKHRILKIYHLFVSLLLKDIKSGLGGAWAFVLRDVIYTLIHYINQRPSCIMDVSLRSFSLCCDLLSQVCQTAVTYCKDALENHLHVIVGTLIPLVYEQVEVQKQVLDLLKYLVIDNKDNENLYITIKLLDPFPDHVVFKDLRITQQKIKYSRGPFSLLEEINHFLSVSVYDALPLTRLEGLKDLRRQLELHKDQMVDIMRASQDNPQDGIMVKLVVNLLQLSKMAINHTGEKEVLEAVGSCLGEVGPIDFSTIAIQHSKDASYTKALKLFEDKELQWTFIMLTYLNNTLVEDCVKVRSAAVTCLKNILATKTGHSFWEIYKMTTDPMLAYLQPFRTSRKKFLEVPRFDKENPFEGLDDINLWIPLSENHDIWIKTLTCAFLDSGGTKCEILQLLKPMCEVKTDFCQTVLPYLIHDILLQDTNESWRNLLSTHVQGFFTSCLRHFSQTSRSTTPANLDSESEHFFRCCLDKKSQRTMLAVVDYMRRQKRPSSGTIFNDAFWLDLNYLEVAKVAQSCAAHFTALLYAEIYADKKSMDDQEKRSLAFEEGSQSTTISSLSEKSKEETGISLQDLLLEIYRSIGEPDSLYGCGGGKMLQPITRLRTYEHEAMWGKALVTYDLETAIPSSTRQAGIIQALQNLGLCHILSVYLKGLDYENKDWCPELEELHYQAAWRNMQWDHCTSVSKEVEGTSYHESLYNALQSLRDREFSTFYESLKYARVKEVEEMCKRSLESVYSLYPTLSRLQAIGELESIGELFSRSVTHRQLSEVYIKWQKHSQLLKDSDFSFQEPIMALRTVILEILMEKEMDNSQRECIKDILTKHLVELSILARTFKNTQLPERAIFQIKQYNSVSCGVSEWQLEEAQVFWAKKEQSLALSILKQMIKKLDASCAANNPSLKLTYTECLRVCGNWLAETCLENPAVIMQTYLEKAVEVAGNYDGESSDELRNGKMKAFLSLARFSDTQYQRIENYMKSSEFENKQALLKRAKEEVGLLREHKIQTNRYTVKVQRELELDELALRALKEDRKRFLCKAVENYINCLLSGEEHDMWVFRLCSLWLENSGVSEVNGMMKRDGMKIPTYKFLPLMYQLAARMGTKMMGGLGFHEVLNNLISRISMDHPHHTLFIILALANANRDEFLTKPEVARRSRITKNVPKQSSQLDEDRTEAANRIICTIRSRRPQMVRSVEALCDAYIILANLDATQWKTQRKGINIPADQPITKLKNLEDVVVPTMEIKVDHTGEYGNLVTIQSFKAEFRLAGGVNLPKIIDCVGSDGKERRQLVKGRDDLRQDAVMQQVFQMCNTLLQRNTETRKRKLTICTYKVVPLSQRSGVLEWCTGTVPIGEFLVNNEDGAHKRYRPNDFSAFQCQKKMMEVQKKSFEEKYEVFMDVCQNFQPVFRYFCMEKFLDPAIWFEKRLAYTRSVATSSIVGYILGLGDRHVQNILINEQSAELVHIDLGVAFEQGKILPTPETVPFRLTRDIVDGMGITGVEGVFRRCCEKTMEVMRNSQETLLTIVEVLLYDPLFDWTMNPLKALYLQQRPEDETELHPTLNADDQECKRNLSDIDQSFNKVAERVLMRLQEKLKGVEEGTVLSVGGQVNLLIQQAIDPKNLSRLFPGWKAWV

Consider `CC(Nc1ccc2c(c1)Cc1cccc(-c3cc(N4CCOCC4)cc(=O)[nH]3)c1O2)c1cc(Cl)ccn1` (single isomer, unassigned) [Example 2-14-89-2, 6-(7-((1-(4-chloropyridin-2-yl)ethyl)amino)-9H-xanthen-4-yl)-4-morpholinopyridin-2(1H)-one], for which the IC50 in assay [1] was < 100 nM. In assay [2], the SER2 (concentration at which the radiation sensitivity-enhancement ratio reaches 2) was < 100 nM. Consider `Cc1cnc(C(CCN(C)C)Nc2ccc3c(c2)Sc2cccc(-c4cc(N5CCOCC5)cc(=O)[nH]4)c2S3)cn1` (single isomer, unassigned) [Example 1-22-12-1, 6-(7-((3-(dimethylamino)-1-(5-methylpyrazin-2-yl)propyl)amino)thianthren-1-yl)-4-morpholinopyridin-2(1H)-one], for which, in assay [1], the IC50 was < 100 nM. Besides, in assay [2], the SER2 (concentration at which the radiation sensitivity-enhancement ratio reaches 2) lay in the range of 100 to 500 nM.

As for `COCC(CN1CC2CCC(C1)O2)Nc1ccc2c(c1)Sc1cccc(-c3cc(N4CCOCC4)cc(=O)[nH]3)c1S2` [Example 1-46-10, 6-(7-(((2S)-1-(8-Oxa-3-azabicyclo[3.2. l]octan-3-yl)-3-methoxypropan-2-yl)amino)thianthren-1-yl)-4-morpholino pyridin-2(1H)-one], in assay [1], the IC50 is < 100 nM. The SER2 (concentration at which the radiation sensitivity-enhancement ratio reaches 2) in assay [2] fell in the range of 100 to 500 nM. For `CC(CN1CCCCC1)Nc1ccc2c(c1)Sc1cccc(-c3cc(N4CCOCC4)cc(=O)[nH]3)c1S2` (stereo not drawn) [Example 1-13-4] the same measures were < 100 nM and 100 to 500 nM. The matching figures for `O=c1cc(N2CCOCC2)cc(-c2cccc3c2Oc2ccc(NCc4cncc(N5CCC5)c4)cc2C3)[nH]1` [Example 2-2-69, 6-(7-(((5-(Azetidin-1-yl)pyridin-3-yl)methyl)amino)-9H-xanthen-4-yl)-4-morpholino pyridin-2(1H)-one]: < 100 nM and 500 to 2000 nM. For `Cc1cccc(CNc2ccc3c(c2)Sc2cccc(-c4cc(N5CCOCC5)cc(=O)[nH]4)c2S3)n1` [Example 1-12-2, 6-(7-(((6-Methylpyridin-2-yl)methyl)amino)thianthren-1-yl)-4-1-morpholino pyridin-2 (1H)-one] the same measures were < 100 nM and < 100 nM. Turning to `O=c1cc(N2CCOCC2)cc(-c2cccc3c2Sc2ccc(NCCN4CC5(COC5)C4)cc2S3)[nH]1` [Example 1-16-3, 6-(7-((2-(2-Oxa-6-azaspiro[3.3]heptan-6-yl)ethyl)amino)thianthren-1-yl)-4-morpholinopyridin-2(1H)-one], in assay [1], the IC50 was < 100 nM. The SER2 (concentration at which the radiation sensitivity-enhancement ratio reaches 2) in assay [2] is 100 to 500 nM.

`Cc1cccc(C(Nc2ccc3c(c2)Sc2cccc(-c4cc(N5CCOCC5)cc(=O)[nH]4)c2S3)C2CCN(C)C2)n1` (single isomer, unassigned) [Example 1-22-6, 6-(7-(((6-Methylpyridin-2-yl)(1-methylpyrrolidin-3-yl)methyl)amino)thianthren-1-yl)-4-morpholino pyridin-2 (1H)-one]: in assay [1], the IC50 was < 100 nM. The SER2 (concentration at which the radiation sensitivity-enhancement ratio reaches 2) in assay [2] was < 100 nM.

Turning to `O=c1cc(N2CCOCC2)cc(-c2cccc3c2Oc2ccc(NC4CCOC4)cc2C3)[nH]1` (stereo not drawn) [Example 2-16, 4-Morpholino-6-(7-((tetrahydrofuran-3-yl)amino)-9H-xanthen-4-yl)pyridin-2(1H)-one], in assay [1], the IC50 fell in the range of 500 to 2000 nM. On to `CC(=O)Nc1cccc(CNc2ccc3c(c2)Cc2cccc(-c4cc(N5CCOCC5)cc(=O)[nH]4)c2O3)n1` [Example 2-2-73, N-(6-(((5-(4-Morpholino-6-oxo-1,6-dihydropyridin-2-yl)-9H-xanthen-2-yl)amino)methyl)pyridin-2-yl) acetamide], for which, in assay [1], the IC50 lay within 500 to 2000 nM.

As to `CCOC(=O)c1cccc(CNc2ccc3c(c2)Cc2cccc(-c4cc(N5CCOCC5)cc(=O)[nH]4)c2O3)n1` [Example 2-14-73, Ethyl 6-(((5-(4-morpholino-6-oxo-1,6-dihydropyridin-2-yl)-9H-xanthen-2-yl)amino)methyl)picolinate], the IC50 in assay [1] was 100 to 500 nM. The same measure, in the same setting: for `COC1CCN(CCNc2ccc3c(c2)Sc2cccc(-c4cc(N5CCOCC5)cc(=O)[nH]4)c2S3)CC1` [Example 1-10-15, 6-(7-((2-(4-Methoxypiperidin-1-yl)ethyl)amino)thianthren-1-yl)-4-morpholino pyridin-2(1H)-one] the value was 100 to 500 nM.

Regarding `CCC(Nc1ccc2c(c1)Cc1cccc(-c3cc(N4CCOCC4)cc(=O)[nH]3)c1O2)c1cncc(OC)c1` (single isomer, unassigned) [Example 2-37, 6-(7-((1-(5-methoxypyridin-3-yl)propyl)amino)-9H-xanthen-4-yl)-4-morpholinopyridin-2(1H)-one], in assay [1], the IC50 lay in the range of 100 to 500 nM.

Turning to `CC(CCNc1ccc2c(c1)Sc1cccc(-c3cc(N4CCOCC4)cc(=O)[nH]3)c1S2)N1CCOCC1` (stereo not drawn) [Example 8-2, 4-Morpholino-6-(7-((3-morpholinobutyl)amino)thianthren-1-yl)pyridin-2(1H)-one], the IC50 in assay [1] is 100 to 500 nM. As for `CCC(Nc1ccc2c(c1)Sc1cccc(-c3cc(N4CCOCC4)cc(=O)[nH]3)c1S2)[C@@H](N)CC` (stereo partly drawn) [Example 1-20-6, 6-(7-(((4S)-4-Aminohexan-3-yl)amino)thianthren-1-yl)-4-morpholino pyridin-2(1H)-one], in assay [1], the IC50 fell in the range of 100 to 500 nM. Still for that read-out and setting: for `O=c1cc(N2CCOCC2)cc(-c2cccc3c2Sc2ccc(NC4CCNCC4)cc2S3)[nH]1` [Example 1-24-15, 4-Morpholino-6-(7-(piperidin-4-ylamino)thianthren-1-yl)pyridin-2(1H)-one] the value was < 100 nM. Same read-out and setting: the value for `COCc1ccc(CCN2CCC(Nc3ccc4c(c3)Cc3cccc(-c5cc(N6CCOCC6)cc(=O)[nH]5)c3O4)CC2)cc1` [Example 2-30-20, 6-(7-((1-(4-(Methoxymethyl)phenethyl)piperidin-4-yl)amino)-9H-xanthen-4-yl)-4-morpholino pyridin-2(1H)-one] was 500 to 2000 nM; that for `Cc1ccnc(C(CO)Nc2ccc3c(c2)Cc2cccc(-c4cc(N5CCOCC5)cc(=O)[nH]4)c2O3)n1` (stereo not drawn) [Example 2-14-82, 6-(7-((2-Hydroxy-1-(4-methylpyrimidin-2-yl)ethyl)amino)-9H-xanthen-4-yl)-4-morpholino pyridin-2(1H)-one] was 500 to 2000 nM. Same read-out and setting: the value for `Cc1cccc(C(CO)Nc2ccc3c(c2)Sc2cccc(-c4cc(N5CCOCC5)cc(=O)[nH]4)c2S3)n1` (single isomer, unassigned) [Example 1-12-140-1, 6-(7-((2-hydroxy-1-(6-methylpyridin-2-yl)ethyl)amino)thianthren-1-yl)-4-morpholinopyridin-2(1H)-one] was 100 to 500 nM.

Take `O=c1cc(N2CCOCC2)cc(-c2cccc3c2Sc2ccc(NC4CCCCC4N4CCOCC4)cc2S3)[nH]1` (stereo not drawn) [Example 1-16-2, 4-Morpholino-6-(7-((2-morpholinocyclohexyl)amino)thianthren-1-yl)pyridin-2(1H)-one]: the IC50 in assay [1] fell in the range of 100 to 500 nM. The same measure, in the same setting: the value for `COc1ccc(CNc2ccc3c(c2)Sc2cccc(-c4cc(N5CCOCC5)cc(=O)[nH]4)c2S3)nc1` [Example 1-12-12, 6-(7-(((5-Methoxypyridin-2-yl)methyl)amino)thianthren-1-yl)-4-morpholino pyridin-2(1H)-one] was 100 to 500 nM; that for `CN(C)CCNc1ccc2c(c1)Sc1cccc(-c3cc(N4CCOCC4)cc(=O)[nH]3)c1S2` [Example 1-10-4, 6-(7-((2-(Dimethylamino)ethyl)amino)thianthren-1-yl)-4-morpholinopyridin-2(1H)-one] was 100 to 500 nM; that for `CC(C)(O)CN1CCC(Nc2ccc3c(c2)Sc2cccc(-c4cc(N5CCOCC5)cc(=O)[nH]4)c2S3)CC1` [Example 1-29-1, 6-(7-((1-(2-hydroxy-2-methylpropyl)piperidin-4-yl)amino)thianthren-1-yl)-4-morpholinopyridin-2(1H)-one] was 100 to 500 nM.

With `COc1ccc(CN2CCC(Nc3ccc4c(c3)Cc3cccc(-c5cc(N6CCOCC6)cc(=O)[nH]5)c3O4)CC2)cn1` [Example 2-28-6, 6-(7-((1-((6-Methoxypyridin-3-yl)methyl)piperidin-4-yl)amino)-9H-xanthen-4-yl)-4-morpholino pyridin-2(1H)-one], the IC50 in assay [1] is 100 to 500 nM. Regarding `O=c1cc(N2CCOCC2)cc(-c2cccc3c2Oc2ccc(NCc4cncs4)cc2C3)[nH]1` [Example 2-14-37, 4-Morpholino-6-(7-((thiazol-5-ylmethyl)amino)-9H-xanthen-4-yl) pyridin-2(1H)-one], the IC50 in assay [1] was 500 to 2000 nM.
